Laboratory results from patent US7166299B2, “Preparation of aqueous clear solution dosage forms with bile acids” (priority 1998, dated 2007).
Values joined by “and” are separate entries in the source; they are usually repeats but may differ in a detail not shown here. Equal entries are not always repeated.

Experiment: Solution stability test (HPLC) of UDCA, branched chained amino acids and maltodextrin solution, Example IV
Type: physicochemical
Procedure: The stability tests were conducted on three different aqueous solution systems: […]. A bile acid and a high molecular weight aqueous soluble starch conversion product were combined in aqueous solution according to Example I, with results as shown in Tables 1A and 1B. • 2. Mixed bile acids and high molecular weight aqueous soluble starch conversion products were combined in aqueous solution according to Example II, with results as shown in Table 2. • 3. Bile acids, high molecular weight aqueous soluble starch conversion products and branched chained amino acids (e.g. leucine, isoleucine, valine, or other amino acid with a branched side chain) were combined in aqueous solution according to Example IV, with results as shown in Tables 3A through 3F. The stability tests were performed with HPLC and microscope light at various pH conditions under the normal and accelerated conditions. Accelerated conditions for testing pharmaceutical compositions have been described (Remington, The Science and Practice of Pharmacy, 19th ed., p. 640). […] Thus, the formulations of the examples are suitable for preparing a commercial liquid dosage form. […] Some formulations remain stable for over 2 years. Moreover, the solution stability tests were conducted on the aqueous solution dosage forms comprising the mixture of aqueous soluble UDCA, branched chained amino acid (leucine, isoleucine, valine) and maltodextrin according to example IV as a typical example of the solution dosage forms in which bile acid as a therapeutically active agent, as an adjuvant or carrier, pharmaceutically active agent, or enhancer of solubility, and high molecular weight aqueous soluble starch conversion products or soluble non-starch polysaccharides are dissolved. According to the test results, there is no discoloration, no clarity changes, and no precipitation. […] In the tables, the concentration of the indicated bile acid salt for each of the three numbered trials and the average thereof is reported on each line. The percentage indicates the relative concentration of the bile acid salt after incubation for a certain amount of time in comparison with the initial concentration. 85 mL of the aqueous solution in which soluble UDCA is dissolved was prepared, and then maltodextrin was added into the clear solution. Into the resulting clear solution, branched amino acids were added with adjusting the pH (4–7) with agitation and then sweetener, preservatives, and flavoring agent were added. Purified water was added to adjust the total volume to be 100 mL. Tables 3A to 3F show stability test results over time of formulation prepared with amino acids according to Example IV. All stability tests were conducted at 50° C. Stability test results at pH 1 (Table 3A), pH 3 (Table 3B), pH 5 (Table 3C), pH 7 (Table 3D), pH 9 (Table 3E), and pH 10 (Table 3F) are shown.

- Percentage of day 0 concentration (Table 3A: pH1, 50° C., day 0): 100.0%
- concentration by HPLC, Average (Table 3A: pH1, 50° C., day 0): 0.471
- concentration by HPLC, trials #1-#3 (Table 3A: pH1, 50° C., day 0): 0.506 and 0.448 and 0.460
- Percentage of day 0 concentration (Table 3A: pH1, 50° C., day 1): 96.7%
- concentration by HPLC, Average (Table 3A: pH1, 50° C., day 1): 0.456
- concentration by HPLC, trials #1-#3 (Table 3A: pH1, 50° C., day 1): 0.438 and 0.458 and 0.471
- Percentage of day 0 concentration (Table 3A: pH1, 50° C., day 2): 104.5%
- concentration by HPLC, Average (Table 3A: pH1, 50° C., day 2): 0.492
- concentration by HPLC, trials #1-#3 (Table 3A: pH1, 50° C., day 2): 0.479 and 0.485 and 0.513
- Percentage of day 0 concentration (Table 3A: pH1, 50° C., day 6): 112.4%
- concentration by HPLC, Average (Table 3A: pH1, 50° C., day 6): 0.530
- concentration by HPLC, trials #1-#3 (Table 3A: pH1, 50° C., day 6): 0.505 and 0.536 and 0.549
- Percentage of day 0 concentration (Table 3A: pH1, 50° C., day 7): 102.9%
- concentration by HPLC, Average (Table 3A: pH1, 50° C., day 7): 0.485
- concentration by HPLC, trials #1-#3 (Table 3A: pH1, 50° C., day 7): 0.494 and 0.465 and 0.496
- Percentage of day 0 concentration (Table 3A: pH1, 50° C., day 8): 101.7%
- concentration by HPLC, Average (Table 3A: pH1, 50° C., day 8): 0.479
- concentration by HPLC, trials #1-#3 (Table 3A: pH1, 50° C., day 8): 0.488 and 0.491 and 0.459
- Percentage of day 0 concentration (Table 3A: pH1, 50° C., day 9): 103.6%
- concentration by HPLC, Average (Table 3A: pH1, 50° C., day 9): 0.488
- concentration by HPLC, trials #1-#3 (Table 3A: pH1, 50° C., day 9): 0.479 and 0.496 and 0.490
- Percentage of day 0 concentration (Table 3B: pH 3, 50° C., day 0): 100.0%
- concentration by HPLC, Average (Table 3B: pH 3, 50° C., day 0): 0.491
- concentration by HPLC, trials #1-#3 (Table 3B: pH 3, 50° C., day 0): 0.485 and 0.491 and 0.498
- Percentage of day 0 concentration (Table 3B: pH 3, 50° C., day 1): 94.6%
- concentration by HPLC, Average (Table 3B: pH 3, 50° C., day 1): 0.465
- concentration by HPLC, trials #1-#3 (Table 3B: pH 3, 50° C., day 1): 0.467 and 0.481 and 0.446
- Percentage of day 0 concentration (Table 3B: pH 3, 50° C., day 2): 103.8%
- concentration by HPLC, Average (Table 3B: pH 3, 50° C., day 2): 0.510
- concentration by HPLC, trials #1-#3 (Table 3B: pH 3, 50° C., day 2): 0.510 and 0.493 and 0.527
- Percentage of day 0 concentration (Table 3B: pH 3, 50° C., day 6): 106.6%
- concentration by HPLC, Average (Table 3B: pH 3, 50° C., day 6): 0.524
- concentration by HPLC, trials #1-#3 (Table 3B: pH 3, 50° C., day 6): 0.527 and 0.491 and 0.553
- Percentage of day 0 concentration (Table 3B: pH 3, 50° C., day 7): 97.3%
- concentration by HPLC, Average (Table 3B: pH 3, 50° C., day 7): 0.478
- concentration by HPLC, trials #1-#3 (Table 3B: pH 3, 50° C., day 7): 0.485 and 0.481 and 0.468
- Percentage of day 0 concentration (Table 3B: pH 3, 50° C., day 8): 103.5%
- concentration by HPLC, Average (Table 3B: pH 3, 50° C., day 8): 0.508
- concentration by HPLC, trials #1-#3 (Table 3B: pH 3, 50° C., day 8): 0.490 and 0.491 and 0.544
- Percentage of day 0 concentration (Table 3B: pH 3, 50° C., day 13): 104.1%
- concentration by HPLC, Average (Table 3B: pH 3, 50° C., day 13): 0.511
- concentration by HPLC, trials #1-#3 (Table 3B: pH 3, 50° C., day 13): 0.519 and 0.498 and 0.517
- Percentage of day 0 concentration (Table 3C: pH 5, 50° C., day 0): 100.0%
- concentration by HPLC, Average (Table 3C: pH 5, 50° C., day 0): 0.487
- concentration by HPLC, trials #1-#3 (Table 3C: pH 5, 50° C., day 0): 0.483 and 0.498 and 0.481
- Percentage of day 0 concentration (Table 3C: pH 5, 50° C., day 3): 103.4%
- concentration by HPLC, Average (Table 3C: pH 5, 50° C., day 3): 0.504
- concentration by HPLC, trials #1-#3 (Table 3C: pH 5, 50° C., day 3): 0.492 and 0.494 and 0.526
- Percentage of day 0 concentration (Table 3C: pH 5, 50° C., day 6): 96.8%
- concentration by HPLC, Average (Table 3C: pH 5, 50° C., day 6): 0.472
- concentration by HPLC, trials #1-#3 (Table 3C: pH 5, 50° C., day 6): 0.459 and 0.475 and 0.481
- Percentage of day 0 concentration (Table 3C: pH 5, 50° C., day 10): 96.9%
- concentration by HPLC, Average (Table 3C: pH 5, 50° C., day 10): 0.472
- concentration by HPLC, trials #1-#3 (Table 3C: pH 5, 50° C., day 10): 0.500 and 0.436 and 0.480
- Percentage of day 0 concentration (Table 3C: pH 5, 50° C., day 13): 95.0%
- concentration by HPLC, Average (Table 3C: pH 5, 50° C., day 13): 0.463
- concentration by HPLC, trials #1-#3 (Table 3C: pH 5, 50° C., day 13): 0.464 and 0.451 and 0.474
- Percentage of day 0 concentration (Table 3C: pH 5, 50° C., day 17): 93.0%
- concentration by HPLC, Average (Table 3C: pH 5, 50° C., day 17): 0.453
- concentration by HPLC, trials #1-#3 (Table 3C: pH 5, 50° C., day 17): 0.407 and 0.491 and 0.462
- Percentage of day 0 concentration (Table 3C: pH 5, 50° C., day 20): 99.9%
- concentration by HPLC, Average (Table 3C: pH 5, 50° C., day 20): 0.487
- concentration by HPLC, trials #1-#3 (Table 3C: pH 5, 50° C., day 20): 0.471 and 0.512 and 0.477
- Percentage of day 0 concentration (Table 3C: pH 5, 50° C., day 24): 96.1%
- concentration by HPLC, Average (Table 3C: pH 5, 50° C., day 24): 0.468
- concentration by HPLC, trials #1-#3 (Table 3C: pH 5, 50° C., day 24): 0.471 and 0.476 and 0.458
- Percentage of day 0 concentration (Table 3D: pH 7, 50° C., day 0): 100.0%
- concentration by HPLC, Average (Table 3D: pH 7, 50° C., day 0): 0.513
- concentration by HPLC, trials #1-#3 (Table 3D: pH 7, 50° C., day 0): 0.483 and 0.530 and 0.525
- Percentage of day 0 concentration (Table 3D: pH 7, 50° C., day 5): 94.1%
- concentration by HPLC, Average (Table 3D: pH 7, 50° C., day 5): 0.483
- concentration by HPLC, trials #1-#3 (Table 3D: pH 7, 50° C., day 5): 0.502 and 0.447 and 0.499
- Percentage of day 0 concentration (Table 3D: pH 7, 50° C., day 8): 96.2%
- concentration by HPLC, Average (Table 3D: pH 7, 50° C., day 8): 0.493
- concentration by HPLC, trials #1-#3 (Table 3D: pH 7, 50° C., day 8): 0.488 and 0.498 and 0.493
- Percentage of day 0 concentration (Table 3D: pH 7, 50° C., day 12): 91.2%
- concentration by HPLC, Average (Table 3D: pH 7, 50° C., day 12): 0.467
- concentration by HPLC, trials #1-#3 (Table 3D: pH 7, 50° C., day 12): 0.490 and 0.469 and 0.443
- Percentage of day 0 concentration (Table 3D: pH 7, 50° C., day 15): 95.9%
- concentration by HPLC, Average (Table 3D: pH 7, 50° C., day 15): 0.492
- concentration by HPLC, trials #1-#3 (Table 3D: pH 7, 50° C., day 15): 0.492 and 0.541 and 0.442
- Percentage of day 0 concentration (Table 3D: pH 7, 50° C., day 19): 93.6%
- concentration by HPLC, Average (Table 3D: pH 7, 50° C., day 19): 0.480
- concentration by HPLC, trials #1-#3 (Table 3D: pH 7, 50° C., day 19): 0.458 and 0.500 and 0.482
- Percentage of day 0 concentration (Table 3E: pH 9, 50° C., day 0): 100.0%
- concentration by HPLC, Average (Table 3E: pH 9, 50° C., day 0): 0.489
- concentration by HPLC, trials #1-#3 (Table 3E: pH 9, 50° C., day 0): 0.508 and 0.476 and 0.484
- Percentage of day 0 concentration (Table 3E: pH 9, 50° C., day 3): 97.8%
- concentration by HPLC, Average (Table 3E: pH 9, 50° C., day 3): 0.478
- concentration by HPLC, trials #1-#3 (Table 3E: pH 9, 50° C., day 3): 0.463 and 0.487 and 0.485
- Percentage of day 0 concentration (Table 3E: pH 9, 50° C., day 6): 99.5%
- concentration by HPLC, Average (Table 3E: pH 9, 50° C., day 6): 0.487
- concentration by HPLC, trials #1-#3 (Table 3E: pH 9, 50° C., day 6): 0.493 and 0.473 and 0.495
- Percentage of day 0 concentration (Table 3E: pH 9, 50° C., day 10): 91.3%
- concentration by HPLC, Average (Table 3E: pH 9, 50° C., day 10): 0.447
- concentration by HPLC, trials #1-#3 (Table 3E: pH 9, 50° C., day 10): 0.441 and 0.428 and 0.471
- Percentage of day 0 concentration (Table 3E: pH 9, 50° C., day 13): 101.3%
- concentration by HPLC, Average (Table 3E: pH 9, 50° C., day 13): 0.496
- concentration by HPLC, trials #1-#3 (Table 3E: pH 9, 50° C., day 13): 0.467 and 0.483 and 0.537
- Percentage of day 0 concentration (Table 3E: pH 9, 50° C., day 17): 101.8%
- concentration by HPLC, Average (Table 3E: pH 9, 50° C., day 17): 0.498
- concentration by HPLC, trials #1-#3 (Table 3E: pH 9, 50° C., day 17): 0.499
- Percentage of day 0 concentration (Table 3F: pH 10, 50° C., day 0): 100.0%
- concentration by HPLC, Average (Table 3F: pH 10, 50° C., day 0): 0.486
- Percentage of day 0 concentration (Table 3F: pH 10, 50° C., day 2): 104.2%
- concentration by HPLC, Average (Table 3F: pH 10, 50° C., day 2): 0.506
- Percentage of day 0 concentration (Table 3F: pH 10, 50° C., day 5): 83.5%
- concentration by HPLC, Average (Table 3F: pH 10, 50° C., day 5): 0.405
- Percentage of day 0 concentration (Table 3F: pH 10, 50° C., day 7): 81.8%
- concentration by HPLC, Average (Table 3F: pH 10, 50° C., day 7): 0.397
- Percentage of day 0 concentration (Table 3F: pH 10, 50° C., day 9): 75.8%
- concentration by HPLC, Average (Table 3F: pH 10, 50° C., day 9): 0.368
SMILES: CC(C)[C@H](N)C(=O)O [Val, valine]
